Holding throughout (assay type): binding
Common to all, as to design: key: No binding of immunoglobulin for the defined peptide variant, detection negative: 0; Binding of immunoglobulin for the defined peptide variant, detection positive: +

Assay [1] concerns immunoglobulins in human plasma. In words: Cellulose-immobilized 13-mer peptide variants incubated with human plasma, anti-human IgG-AP detection. The following applies: human plasma as sample, diluted 1:10,000 in blocking buffer, 3 h room temperature. How it is done: (§1) Peptides consisting of 13 amino acids were synthesized by solid phase synthesis (Houghten, 1985) on a cellulose matrix with (βA)(βA) as a spacer group.
(§2) The immobilized peptides were tested for their immunoglobulin binding capability by incubation with human IgG-Fc in a buffered solution and by incubation with human plasma.
(§3) Thus, the peptide variants immobilized on solid phases were washed with T-TBS buffer (136 mM NaCl, 1.6 mM KCl, 0.05% (v/v) Tween 20, 50 mM Tris-HCl, pH 8.0) and subsequently treated with blocking buffers (5% (w/v) saccharose, 4% (w/v) bovine serum albumin in T-TBS). Incubation of the immobilized peptides with IgG-Fc (1 μg/ml) in blocking buffer and human serum (diluted 1:10,000 in blocking buffer) was effected for 3 h at room temperature. For checking the specificity of the binding, buffered serum albumin solution (blocking buffer) without addition was included as a control. Thereafter, the peptide variants immobilized on the solid phases were washed three more times with T-TBS buffer.
(§4) After incubation with alkaline phosphatase-conjugated anti-human IgG antibody (1.2 μg/ml) in blocking buffer, detection of the immunoglobulin binding was effected by means of NBT (nitroblue tetrazolium chloride)/BCIP (5-bromo-4-chloro-3-indolyl phosphate toluidine salt) as a substrate (200 μl of parent solution (18.75 mg/ml NBT and 9.4 mg/ml BCIP in 67% (v/v) DMSO) in 10 ml developing buffer (100 mM Tris-HCl, 100 mM NaCl, 5 mM MgCl2, pH 9.5)).

Assay [2] relates to serum albumin. Nature of the assay: Cellulose-immobilized 13-mer peptide variants incubated with serum albumin (negative control), anti-human IgG-AP detection. The note with it: blocking buffer without addition, 3 h room temperature. The protocol:
as §1, §2, §3, §4

Assay [3] has as its system human IgG-Fc. Nature of the assay: Cellulose-immobilized 13-mer peptide variants incubated with human IgG-Fc, anti-human IgG-AP detection. The note with it: IgG-Fc 1 μg/ml in blocking buffer, 3 h room temperature. How it is done:
as §1, §2, §3, §4

Bridge positions count the residues as written; N and C are the ends. Square brackets hold non-standard residues; d marks the D form. Ends that are not written are not given here. cellulose = not defined here; βAla = NCCC(=O)O

For the substance “03Q: cellulose-bound 13-mer variant DCQWHLGELVWCT-(βA)(βA) (DCQWHLGELVWCT-{βAla-βAla-cellulose}; disulfide 2-12 (inferred); reading uncertain; also: printed as DCQWHLGELVWCT-(βA)(βA))”, the “Result for incubation with human plasma (immunoglobulin binding detection)” value (shortened to “Result for incubation with human plasma”) in assay [1] came to 0. Also, the “Result for incubation with serum albumin (immunoglobulin binding detection)” value (shortened to “Result for incubation with serum albumin”) in assay [2] is reported as 0. In addition, the “Result for incubation with human IgG-Fc (immunoglobulin binding detection)” value (“Result for incubation with human IgG-Fc” below) in assay [3] is listed as “+”.

With “03N: cellulose-bound 13-mer variant DCNWHLGELVWCT-(βA)(βA) (DCNWHLGELVWCT-{βAla-βAla-cellulose}; disulfide 2-12 (inferred); reading uncertain; also: printed as DCNWHLGELVWCT-(βA)(βA))”, in assay [1], the “Result for incubation with human plasma” value was found to be 0. Besides, the “Result for incubation with serum albumin” value in assay [2] amounted to 0. Further, the “Result for incubation with human IgG-Fc” value in assay [3] is recorded as 0.

Take “02V: cellulose-bound 13-mer variant DVAWHLGELVWCT-(βA)(βA) (DVAWHLGELVWCT[βAla][βAla]; not fully specified; printed as DVAWHLGELVWCT-(βA)(βA); also: cellulose-bound)”: the “Result for incubation with human plasma” value in assay [1] is 0. For the same substance, the “Result for incubation with serum albumin” value in assay [2] was 0. The “Result for incubation with human IgG-Fc” value in assay [3] amounted to 0.

Turning to “04V: cellulose-bound 13-mer variant DCAVHLGELVWCT-(βA)(βA) (disulfide 2-12 (inferred); not fully specified (N-terminus, C-terminus); printed as DCAVHLGELVWCT-(βA)(βA); also: cellulose-bound)”, the “Result for incubation with human plasma” value in assay [1] was “+”. In addition, the “Result for incubation with serum albumin” value in assay [2] turned out to be 0. For the same substance, the “Result for incubation with human IgG-Fc” value in assay [3] is recorded as “+”.

In the case of “06V: cellulose-bound 13-mer variant DCAWHVGELVWCT-(βA)(βA) (DCAWHVGELVWCT-{βAla-βAla-cellulose}; disulfide 2-12 (inferred); not fully specified (N-terminus); printed as DCAWHVGELVWCT-(βA)(βA); reading uncertain)”, the “Result for incubation with human plasma” value in assay [1] came out at 0. The “Result for incubation with serum albumin” value in assay [2] is given as 0. Also, in assay [3], the “Result for incubation with human IgG-Fc” value came out at 0.

Turning to “06G: cellulose-bound 13-mer variant DCAWHGGELVWCT-(βA)(βA) (DCAWHGGELVWCT[βAla][βAla]; disulfide 2-12 (inferred); not fully specified (N-terminus); printed as DCAWHGGELVWCT-(βA)(βA); also: cellulose-bound)”, the “Result for incubation with human plasma” value in assay [1] is “+”. The “Result for incubation with serum albumin” value in assay [2] was 0. In addition, the “Result for incubation with human IgG-Fc” value in assay [3] is “+”.

With “12E: cellulose-bound 13-mer variant DCAWHLGELVWET-(βA)(βA) (DCAWHLGELVWET-{βAla-βAla-cellulose}; not fully specified; printed as DCAWHLGELVWET-(βA)(βA); reading uncertain)”, the “Result for incubation with human plasma” value in assay [1] was found to be 0. Also, in assay [2], the “Result for incubation with serum albumin” value amounted to 0. Further, the “Result for incubation with human IgG-Fc” value in assay [3] worked out at 0.

Regarding “05S: cellulose-bound 13-mer variant DCAWSLGELVWCT-(βA)(βA) (disulfide 2-12 (inferred); not fully specified (N-terminus, C-terminus); printed as DCAWSLGELVWCT-(βA)(βA); also: cellulose-bound)”, the “Result for incubation with human plasma” value in assay [1] is on record as 0. Also, in assay [2], the “Result for incubation with serum albumin” value was 0. Besides, the “Result for incubation with human IgG-Fc” value in assay [3] was 0.

Turning to “03R: cellulose-bound 13-mer variant DCRWHLGELVWCT-(βA)(βA) (DCRWHLGELVWCT-{βAla-βAla-cellulose}; disulfide 2-12 (inferred); reading uncertain; also: printed as DCRWHLGELVWCT-(βA)(βA))”, the “Result for incubation with human plasma” value in assay [1] amounted to 0. Moreover, the “Result for incubation with serum albumin” value in assay [2] came to 0. For the same substance, in assay [3], the “Result for incubation with human IgG-Fc” value is 0.

In the case of “01L: cellulose-bound 13-mer variant LCAWHLGELVWCT-(βA)(βA) (LCAWHLGELVWCT-{βAla-βAla-cellulose}; disulfide 2-12 (inferred); reading uncertain; also: printed as LCAWHLGELVWCT-(βA)(βA))”, the “Result for incubation with human plasma” value in assay [1] turned out to be 0. For the same substance, the “Result for incubation with serum albumin” value in assay [2] turned out to be 0. Besides, in assay [3], the “Result for incubation with human IgG-Fc” value is reported as “+”.

Consider “10C: cellulose-bound 13-mer variant DCAWHLGELCWCT-(βA)(βA) (DCAWHLGELCWCT-{βAla-βAla-cellulose}; not fully specified (bridges); printed as DCAWHLGELCWCT-(βA)(βA); cysteine pairing not given here; reading uncertain)”, for which the “Result for incubation with human plasma” value in assay [1] worked out at 0. Besides, the “Result for incubation with serum albumin” value in assay [2] is 0. Besides, the “Result for incubation with human IgG-Fc” value in assay [3] turned out to be 0.

As to “01S: cellulose-bound 13-mer variant SCAWHLGELVWCT-(βA)(βA) (SCAWHLGELVWCT-{βAla-βAla-cellulose}; disulfide 2-12 (inferred); reading uncertain; also: printed as SCAWHLGELVWCT-(βA)(βA))”, in assay [1], the “Result for incubation with human plasma” value stood at 0. For the same substance, the “Result for incubation with serum albumin” value in assay [2] was found to be 0. In addition, in assay [3], the “Result for incubation with human IgG-Fc” value is recorded as “+”.

In the case of “11R: cellulose-bound 13-mer variant DCAWHLGELVRCT-(βA)(βA)”, the “Result for incubation with human plasma” value in assay [1] is 0. Moreover, the “Result for incubation with serum albumin” value in assay [2] came to 0. The “Result for incubation with human IgG-Fc” value in assay [3] is 0.

For the substance “11S: cellulose-bound 13-mer variant DCAWHLGELVSCT-(βA)(βA)”, in assay [1], the “Result for incubation with human plasma” value amounted to 0. In addition, in assay [2], the “Result for incubation with serum albumin” value is reported as 0. The “Result for incubation with human IgG-Fc” value in assay [3] is 0.

As to “06A: cellulose-bound 13-mer variant DCAWHAGELVWCT-(βA)(βA) (DCAWHAGELVWCT[βAla][βAla]; disulfide 2-12 (inferred); not fully specified (N-terminus); printed as DCAWHAGELVWCT-(βA)(βA); also: cellulose-bound)”, the “Result for incubation with human plasma” value in assay [1] was found to be 0. Also, the “Result for incubation with serum albumin” value in assay [2] was 0. Further, in assay [3], the “Result for incubation with human IgG-Fc” value was “+”.

As to “08V: cellulose-bound 13-mer variant DCAWHLGVLVWCT-(βA)(βA) (DCAWHLGVLVWCT-{βAla-βAla-cellulose}; disulfide 2-12 (inferred); reading uncertain; also: printed as DCAWHLGVLVWCT-(βA)(βA))”, the “Result for incubation with human plasma” value in assay [1] turned out to be 0. Besides, the “Result for incubation with serum albumin” value in assay [2] was found to be 0. In addition, the “Result for incubation with human IgG-Fc” value in assay [3] amounted to 0.

Take “06R: cellulose-bound 13-mer variant DCAWHRGELVWCT-(βA)(βA) (DCAWHRGELVWCT-{βAla-βAla-cellulose}; disulfide 2-12 (inferred); not fully specified (N-terminus); printed as DCAWHRGELVWCT-(βA)(βA); reading uncertain)”: the “Result for incubation with human plasma” value in assay [1] is on record as “+”. Moreover, in assay [2], the “Result for incubation with serum albumin” value worked out at 0. In addition, the “Result for incubation with human IgG-Fc” value in assay [3] is on record as “+”.

Take “05I: cellulose-bound 13-mer variant DCAWILGELVWCT-(βA)(βA) (disulfide 2-12 (inferred); not fully specified (N-terminus, C-terminus); printed as DCAWILGELVWCT-(βA)(βA); also: cellulose-bound)”: in assay [1], the “Result for incubation with human plasma” value was 0. Besides, in assay [2], the “Result for incubation with serum albumin” value is given as 0. Moreover, the “Result for incubation with human IgG-Fc” value in assay [3] is listed as 0.

The record behind these values is patent publication US7205382B2, “Peptides, the production and use thereof for binding immunoglobulins” (Fresenius Medical Care Affina GmbH, priority 2000, dated 2007).
